Read-outs that look alike come from different tables or passages of the source.
Tests used:
[1] = system: membrane bound active Ras (H-Ras); assay: GFP-RBD dissociation in H-Ras transfected CHO.T cells; type: cell-based; settings: ATP 50 μM
Description: FIG. 6. […] GFP-RBD is localised to the plasma membrane and endomembranes in non-starved, H-Ras transfected CHO.T cells.

[2] = system: membrane bound active Ras (H-Ras); assay: RAPID assay (Ras Activity Probe for Inhibitor Detection), GFP-RBD reporter, COS-7 cells; type: cell-based; settings: 50 μM ATP
Procedure: COS-7 cells were grown in DMEM supplemented with 10% FCS. The day before transfection cells were seeded out on 6-well tissue culture plates containing 22 mm circular glass coverslips to obtain a confluency of 50-60% prior to transfection. DNA constructs (pcDNA3.1 H-Ras, pEGFP-C3 RBD and optionally pCl-neo CAPRI) were incubated with Genejuice (Novagen) according to manufacturers instructions and added to the cell medium to transfect (lipofect) cells. 24 hours later coverslips were mounted in a heated stage (37° C.) in KH buffer [5 mM HEPES, 10 mM glucose, 25 mM NaHCO3 1.2 mM K2HPO4, 118 mM NaCl, 4.7 mM KCl, 1.2 mM MgSO4, 1.3 mM CaCl2 (pH 7.4)]. Nipkow confocal microscopy was performed using a PerkinElmer UltraView LCI system to image GFP. […] Inhibition of Ras activation, or deactivation of active Ras, was detected by dissociation of the fluorescent […] reporter from the plasma and/or Golgi membranes, into the cytosol. This was seen as a loss of fluorescent signal from the membrane/increase in fluorescent signal in the cytosol.
The inverse relative change in fluorescence intensity at a given time point is expressed as, 1−(cytosolic fluorescence intensity/maximum experimental cytosolic fluorescence intensity)
(§1) Relative Dissociation=maximal pixel intensity of cytosolic ROI (usually at time zero) divided by the cytosolic ROI at time x during the experiment.

CAPRI C2A/C2B domains = assay: GFP-C2A/C2B localisation, live confocal microscopy, COS-7 cells; type: cell-based
Procedure: Experiments were performed to assess expression of GFP-C2A/C2B domain COS-7 cells imaged by live confocal microscopy. Cells were transfected with GFP-C2A/C2B vector by lipofection and imaged 24 hours later. […] Nuclear GFP-C2A/C2B is diffusely localised throughout the nucleoplasm before stimulation (due to size of the fusion protein). […] The stimulated association/disassociation of these structures are probably due to a specific interaction with endogenous entities near the plasma membrane and within the perinuclear region, rather than non-specific aggregation (see 20 second image).

CAPRI = assay: GFP-CAPRI translocation assay, live confocal imaging, HeLa cells; type: cell-based; settings: HeLa cells expressing GFP-C2B; carbachol stimulation
Procedure: The ability of the activating peptide to induce translocation of CAPRI to the plasma membrane can be monitored by applying cell-permeable peptide to live cells expressing GFP-tagged CAPRI imaged by confocal or wide-field microscopy. Experiments were performed to assess expression of GFP-C2B compared with GFP-CAPRI in HeLa cells 24 hrs after transient transfection by lipofection. Live imaging was performed by confocal microscopy. The results are shown in FIG. 3, the image for GFP-C2B is shown on the left hand side, GFP-CAPRI images at 0 s, 30 s and 60 s are shown on the right. Cells expressing GFP-CAPRI were stimulated with carbachol to mobilise intracellular Ca^2+, time=seconds after stimulation. […] CAPRI activating peptides induce the translocation of GFP-CAPRI to the plasma membrane in the absence of agonist stimulation.

[3] = system: membrane bound active Ras (H-Ras); settings: 100 μM histamine
Description: FIG. 9. […] Dissociation of the RBD from the plasma membrane is expressed as Relative Dissociation=maximal pixel intensity of cytosolic ROI (usually at time zero) divided by the cytosolic ROI at time x during the experiment.
as §1

In the case of `Nc1ncnc2c1ncn2[C@@H]1O[C@H](COP(=O)(O)OP(=O)(O)OP(=O)(O)O)[C@@H](O)[C@H]1O` [ATP], the “deactivation of Ras at the plasma membrane (GFP-RBD dissociation)” value ([1]; CHO cells stably expressing CAPRI, H-Ras transfected, non-starved) is reported as “rapid deactivation of Ras at the plasma membrane”, the “GFP-RBD dissociation, parental cells” value ([1]; parental CHO.T cells) is reported as “No such dissociation” and the “deactivation of Ras (GFP-RBD dissociation), control cells” value ([2]; COS cells transfected with H-Ras and GFP-RBD only, or GAP-dead CAPRI (R47S mutant)) is reported as “no detectable deactivation”. For the same compound, the “dissociation of GFP-RBD from the plasma membrane (Ras deactivation)” value ([2]; non-starved COS-7 transfected with H-Ras, GFP-RBD and CAPRI) was “rapid dissociation of the GFP-RBD exclusively from the plasma membrane”.
With `O=C(O)CN(CCOCCOCCN(CC(=O)O)CC(=O)O)CC(=O)O` [EGTA] the “dissociation of GFP-C2A/C2B chimera from the membrane” value (CAPRI C2A/C2B domains; COS-7 cells after ionomycin, 5 μM EGTA in extracellular medium) was “rapid dissociation of the GFP-C2A/C2B chimera from the membrane into the cytosol and nucleoplasm”.
In the case of `C[N+](C)(C)CCOC(N)=O` [carbachol], the GFP-C2B localisation (CAPRI) is reported as “No detectable effect”.
For `NCCc1c[nH]cn1` [histamine], the “deactivation of Ras (GFP-RBD dissociation), control cells” value ([3]; HeLa cells transfected with H-Ras and GFP-RBD only, or GAP-dead CAPRI (R47S mutant)) was “no detectable deactivation” and the “dissociation of GFP-RBD from the plasma membrane (Ras deactivation)” value ([3]; non-starved HeLa transfected with H-Ras, GFP-RBD and CAPRI) was “rapid dissociation of the GFP-RBD from the plasma membrane”.
In the case of `C[C@H](CCC(=O)O)C[C@H](C)C[C@H](C)C(=O)/C=C(\O)[C@H](C)C[C@H](C)C/C=C/[C@@H](C)[C@@H](O)[C@@H](C)[C@@H](O)C[C@@H]1CC[C@@](C)([C@H]2CC[C@@](C)([C@@H](C)O)O2)O1` [ionomycin], the “redistribution of GFP-C2A/C2B chimera” value (CAPRI C2A/C2B domains; COS-7 cells, ionomycin stimulation) is reported as “forms punctate vesicular structures under the plasma membrane”.

From patent US20070128665A1, “Methods for identifying compounds interacting with small membrane-bound gtp-ases” (priority 2003, published 2007)
